The numbers were not newly measured in patent US20200037638A1, “FORMULATIONS” (Molecular Infusions, LLC., priority 2017, published 2020), which cites them from elsewhere.

Where only a bound is given, the exact number is not on record here.

In the case of `CCCCCc1cc(O)c2c(c1)OC(C)(C)[C@@H]1CCC(C)=C[C@@H]21` [dronabinol, Δ9-tetrahydrocannabinol], the “Duration of appetite stimulant effect” value (after administration) was not below 24 h. Besides, where the note is “after oral administration”, the “Duration of action for psychoactive effects” value is 4 to 6 h, the Onset of action is 0.5 to 1 h and the “Peak effect (time)” value is 2 to 4 h. Besides, where the note is “after single oral doses”, the Absorbed was 90 to 95%. The “Administered dose reaching the systemic circulation” value (oral, first pass hepatic metabolism and high lipid solubility) is 10 to 20%.
